Results published in patent US20120053053A1, “PYRIMIDINE DERIVATIVES AND THEIR USE AS HERBICIDES” (SYNGENTA CROP PROTECTION, LLC, priority 2009, published 2012).
Where “and” joins values, the source holds several entries; their conditions need not be identical. Equal entries are not always repeated.

Tests used:
Assay type in all cases: in vivo
[1] = tested on: Echinochloa crus-galli (ECHCG); experiment: Post-emergence biological efficacy (percentage damage); settings: evaluated after 13 days, 100=total damage, 0=no damage; for Percentage damage ECHCG, post-emergence / pest or weed control at 1000 g/ha: dose 1,000 g/ha
Description: (§1) Seeds of Alopecurus myosuroides (ALOMY), Setaria faberi (SETFA), Echinochloa crus-galli (ECHCG), Solanum nigrum (SOLNI), Amaranthus retoflexus (AMARE) and Ipomea hederaceae (IPOHE) were sown in standard soil in pots. After cultivation for 8 days under controlled conditions in a glasshouse (at 24/16° C., day/night; 14 hours light; 65% humidity), the plants were sprayed with an aqueous spray solution derived from the formulation of the technical active ingredient in acetone/water (50:50) solution containing 0.5% Tween 20 (polyoxyethylene sorbitan monolaurate, CAS RN 9005-64-5) to give a final dose of 250 or 1000 g/ha of test compound. The test plants were then grown on under controlled conditions in a glasshouse (at 24/16° C., day/night; 14 hours light; 65% humidity) and watered twice daily. After 13 days the test was evaluated (100=total damage to plant; 0=no damage to plant).

Solanum nigrum (SOLNI) [2] = experiment: as above; settings: evaluated after 13 days, 100=total damage, 0=no damage; for Percentage damage SOLNI, post-emergence / pest or weed control at 1000 g/ha: dose 1,000 g/ha
Description: as §1

Setaria faberi (SETFA) [3] = experiment: as above; settings: evaluated after 13 days, 100=total damage, 0=no damage; for Percentage damage SETFA, post-emergence / pest or weed control at 1000 g/ha: dose 1,000 g/ha
Description: as §1

[4] = tested on: Ipomea hederaceae (IPOHE); experiment: as above; settings: evaluated after 13 days, 100=total damage, 0=no damage; for Percentage damage IPOHE, post-emergence / pest or weed control at 1000 g/ha: dose 1,000 g/ha
Description: as §1

[5] = tested on: Amaranthus retoflexus (AMARE); experiment: as above; settings: evaluated after 13 days, 100=total damage, 0=no damage; for Percentage damage AMARE, post-emergence / pest or weed control at 1000 g/ha: dose 1,000 g/ha
Description: as §1

[6] = tested on: Alopecurus myosuroides (ALOMY); experiment: as above; settings: evaluated after 13 days, 100=total damage, 0=no damage; for Percentage damage ALOMY, post-emergence / pest or weed control at 1000 g/ha: dose 1,000 g/ha
Description: as §1

[7] = tested on: Echinochloa crus-galli (ECHCG); experiment: Pre-emergence biological efficacy (percentage damage); settings: evaluated after 13 days, 100=total damage, 0=no damage; for Percentage damage ECHCG, pre-emergence / pest or weed control at 1000 g/ha: dose 1,000 g/ha
Description: (§2) Seeds of Alopecurus myosuroides (ALOMY), Setaria faberi (SETFA), Echinochloa crus-galli (ECHCG), Solanum nigrum (SOLNI), Amaranthus retoflexus (AMARE) and Ipomea hederaceae (IPOHE) were sown in standard soil in pots. After cultivation for one day under controlled conditions in a glasshouse (at 24/16° C., day/night; 14 hours light; 65% humidity), the plants were sprayed with an aqueous spray solution derived from the formulation of the technical active ingredient in acetone/water (50:50) solution containing 0.5% Tween 20 (polyoxyethylene sorbitan monolaurate, CAS RN 9005-64-5) to give a final dose of 250 or 1000 g/ha of test compound. The test plants were then grown under controlled conditions in the glasshouse (at 24/16° C., day/night; 14 hours light; 65% humidity) and watered twice daily. After 13 days the test was evaluated (100=total damage to plant; 0=no damage to plant).

Solanum nigrum (SOLNI) [8] = experiment: as above; settings: evaluated after 13 days, 100=total damage, 0=no damage; for Percentage damage SOLNI, pre-emergence / pest or weed control at 1000 g/ha: dose 1,000 g/ha
Description: as §2

Setaria faberi (SETFA) [9] = experiment: as above; settings: evaluated after 13 days, 100=total damage, 0=no damage; for Percentage damage SETFA, pre-emergence / pest or weed control at 1000 g/ha: dose 1,000 g/ha
Description: as §2

[10] = tested on: Ipomea hederaceae (IPOHE); experiment: as above; settings: evaluated after 13 days, 100=total damage, 0=no damage; for Percentage damage IPOHE, pre-emergence / pest or weed control at 1000 g/ha: dose 1,000 g/ha
Description: as §2

[11] = tested on: Amaranthus retoflexus (AMARE); experiment: as above; settings: evaluated after 13 days, 100=total damage, 0=no damage; for Percentage damage AMARE, pre-emergence / pest or weed control at 1000 g/ha: dose 1,000 g/ha
Description: as §2

[12] = tested on: Alopecurus myosuroides (ALOMY); experiment: as above; settings: evaluated after 13 days, 100=total damage, 0=no damage; for Percentage damage ALOMY, pre-emergence / pest or weed control at 1000 g/ha: dose 1,000 g/ha
Description: as §2

[13] = Echinochloa crus-galli, 312 h, dose 250 g/ha
[14] = Solanum nigrum, 312 h, dose 250 g/ha
[15] = Setaria faberi, 312 h, dose 250 g/ha
[16] = Ipomoea hederacea, 312 h, dose 250 g/ha
[17] = Amaranthus retroflexus, 312 h, dose 250 g/ha
[18] = Alopecurus myosuroides, 312 h, dose 250 g/ha

| Structure (SMILES) | Percentage damage ECHCG, post-emergence [1] | Percentage damage SOLNI, post-emergence (Solanum nigrum (SOLNI) [2]) [%] | Percentage damage SETFA, post-emergence (Setaria faberi (SETFA) [3]) | Percentage damage IPOHE, post-emergence [4] | Percentage damage AMARE, post-emergence [5] [%] | Percentage damage ALOMY, post-emergence [6] | Percentage damage ECHCG, pre-emergence [7] [%] | Percentage damage SOLNI, pre-emergence (Solanum nigrum (SOLNI) [8]) [%] | Percentage damage SETFA, pre-emergence (Setaria faberi (SETFA) [9]) [%] | Percentage damage IPOHE, pre-emergence [10] [%] | Percentage damage AMARE, pre-emergence [11] [%] | Percentage damage ALOMY, pre-emergence [12] [%] | pest or weed control at 1000 g/ha ([1]; Echinochloa crus-galli, 312 h) [%] | pest or weed control at 1000 g/ha (Solanum nigrum (SOLNI) [2]; Solanum nigrum, 312 h) [%] | pest or weed control at 1000 g/ha (Setaria faberi (SETFA) [3]; Setaria faberi, 312 h) [%] | pest or weed control at 1000 g/ha ([4]; Ipomoea hederacea, 312 h) [%] | pest or weed control at 1000 g/ha ([5]; Amaranthus retroflexus, 312 h) [%] | pest or weed control at 1000 g/ha ([6]; Alopecurus myosuroides, 312 h) [%] | pest or weed control at 1000 g/ha ([7]; Echinochloa crus-galli, 312 h) [%] | pest or weed control at 1000 g/ha (Solanum nigrum (SOLNI) [8]; Solanum nigrum, 312 h) [%] | also measured |
| --- | --- | --- | --- | --- | --- | --- | --- | --- | --- | --- | --- | --- | --- | --- | --- | --- | --- | --- | --- | --- | --- |
| C/C=C/c1c(N)nc(C2CC2)nc1C(=O)OC [2-62 (E)] | 10% | 70 | 20% | 50% | 40 | 10% | 10 | 70 | 0 | 30 | 40 | 10 |  |  |  |  |  |  |  |  |  |
| C/C=C\c1c(N)nc(C2CC2)nc1C(=O)OC [2-62 (Z)] | 10% | 70 | 30% | 100% | 70 | 10% | 10 | 100 | 20 | 100 | 90 | 20 |  |  |  |  |  |  |  |  |  |
| C/C=C/c1c(N)nc(-c2ccc(Cl)c(OC)c2F)nc1C(=O)OC [27-62 (E)] | 100% | 100 | 100% | 90% | 100 | 90% | 90 | 80 | 80 | 90 | 50 | 90 |  |  |  |  |  |  |  |  |  |
| C/C=C\c1c(N)nc(-c2ccc(Cl)c(OC)c2F)nc1C(=O)OC [27-62 (Z)] | 80% | 80 | 90% | 100% | 100 | 70% | 90 | 100 | 80 | 100 | 100 | 80 |  |  |  |  |  |  |  |  |  |
| C/C=C/c1c(N)nc(-c2ccc(Cl)c(N(C)C)c2F)nc1C(=O)OC [33-62 (E)] |  |  |  |  |  |  | 90 | 80 | 80 | 0 | 100 | 70 |  |  |  |  |  |  |  |  |  |
| C/C=C\c1c(N)nc(-c2ccc(Cl)c(N(C)C)c2F)nc1C(=O)OC [33-62 (Z)] | 80% and 70% | 80 | 80% and 70% | 40% and 30% | 100 | 80% and 60% | 30 | 60 | 30 | 20 | 70 | 30 |  |  |  |  |  |  |  |  |  |
| C=Cc1c(N)nc(C2CC2)nc1C(=O)OC [Compound 2-61, 4-Amino-2-cyclopropyl-5-ethenyl-6-methoxycarbonyl-pyrimidine] |  |  |  |  |  |  |  |  |  |  |  |  | 60 | 100 | 80 | 100 | 100 | 40 | 80 | 100 | pest or weed control at 1000 g/ha (Setaria faberi (SETFA) [9]; Setaria faberi, 312 h): 20%; pest or weed control at 1000 g/ha ([10]; Ipomoea hederacea, 312 h): 100%; pest or weed control at 1000 g/ha ([11]; Amaranthus retroflexus, 312 h): 100%; pest or weed control at 1000 g/ha ([12]; Alopecurus myosuroides, 312 h): 40% |
| C=C(C)c1c(N)nc(C2CC2)nc1C(=O)OC [Compound 2-64, 4-Amino-2-cyclopropyl-6-methoxycarbonyl-5-(prop-1-en-2-yl)-pyrimidine] |  |  |  |  |  |  |  |  |  |  |  |  | 40 | 80 | 30 | 70 | 60 | 10 | 0 | 80 | pest or weed control at 1000 g/ha (Setaria faberi (SETFA) [9]; Setaria faberi, 312 h): 20%; pest or weed control at 1000 g/ha ([10]; Ipomoea hederacea, 312 h): 100%; pest or weed control at 1000 g/ha ([11]; Amaranthus retroflexus, 312 h): 100%; pest or weed control at 1000 g/ha ([12]; Alopecurus myosuroides, 312 h): 20% |
| CCC/C=C/c1c(N)nc(C2CC2)nc1C(=O)OC [Compound 2-65, 4-Amino-2-cyclopropyl-6-methoxycarbonyl-5-(pent-1-enyl)-pyrimidine] |  |  |  |  |  |  |  |  |  |  |  |  |  |  |  |  |  |  |  |  | pest or weed control at 250 g/ha [1, 13]: 0%; pest or weed control at 250 g/ha (Solanum nigrum (SOLNI) [2]; [14]): 40%; pest or weed control at 250 g/ha (Setaria faberi (SETFA) [3]; [15]): 0%; pest or weed control at 250 g/ha [4, 16]: 40%; pest or weed control at 250 g/ha [5, 17]: 20%; pest or weed control at 250 g/ha [6, 18]: 0%; pest or weed control at 250 g/ha [7, 13]: 0%; pest or weed control at 250 g/ha (Solanum nigrum (SOLNI) [8]; [14]): 0%; pest or weed control at 250 g/ha (Setaria faberi (SETFA) [9]; [15]): 0%; pest or weed control at 250 g/ha [10, 16]: 0%; pest or weed control at 250 g/ha [11, 17]: 0%; pest or weed control at 250 g/ha [12, 18]: 0% |
| COC(=O)c1nc(C2CC2)nc(N)c1/C=C/C1CC1 [Compound 2-66, 4-Amino-2-cyclopropyl-5-(2-cyclopropyl-ethenyl)-6-methoxycarbonyl-pyrimidine] |  |  |  |  |  |  |  |  |  |  |  |  | 0 | 60 | 10 | 40 | 50 | 0 | 0 | 0 | pest or weed control at 1000 g/ha (Setaria faberi (SETFA) [9]; Setaria faberi, 312 h): 0%; pest or weed control at 1000 g/ha ([10]; Ipomoea hederacea, 312 h): 0%; pest or weed control at 1000 g/ha ([12]; Alopecurus myosuroides, 312 h): 0% |
| COC(=O)c1nc(C2CC2)nc(N)c1C=C(C)C [Compound 2-69, 4-Amino-2-cyclopropyl-6-methoxycarbonyl-5-(2-methylprop-1-enyl)-pyrimidine] |  |  |  |  |  |  |  |  |  |  |  |  | 0 | 80 | 10 | 70 | 20 | 10 | 0 | 90 | pest or weed control at 1000 g/ha (Setaria faberi (SETFA) [9]; Setaria faberi, 312 h): 0%; pest or weed control at 1000 g/ha ([10]; Ipomoea hederacea, 312 h): 70%; pest or weed control at 1000 g/ha ([11]; Amaranthus retroflexus, 312 h): 100%; pest or weed control at 1000 g/ha ([12]; Alopecurus myosuroides, 312 h): 10% |
| COC(=O)c1nc(-c2ccc(Cl)c(OC)c2F)nc(N)c1C1CC1 [Compound 27-58, 4-Amino-2-(4-chloro-2-fluoro-3-methoxyphenyl)-5-cyclopropyl-6-methoxycarbonyl-pyrimidine] |  |  |  |  |  |  |  |  |  |  |  |  | 20 | 80 | 40 | 60 | 90 | 10 | 0 | 0 | pest or weed control at 1000 g/ha (Setaria faberi (SETFA) [9]; Setaria faberi, 312 h): 0%; pest or weed control at 1000 g/ha ([10]; Ipomoea hederacea, 312 h): 10%; pest or weed control at 1000 g/ha ([12]; Alopecurus myosuroides, 312 h): 0% |
